Measurements published in patent US20190367516A1 (Bayer Pharma Aktiengesellschaft, priority 2015, published 2019).
Read-outs that look alike come from different tables or passages of the source.

Columns and labels:
human M2 receptor [1] = molecular target: T1, human M2 receptor (Homo sapiens, UniProt P08172); assay type: cell-based; details: α >1 = positive cooperativity
T1 sequence (P08172 1-466): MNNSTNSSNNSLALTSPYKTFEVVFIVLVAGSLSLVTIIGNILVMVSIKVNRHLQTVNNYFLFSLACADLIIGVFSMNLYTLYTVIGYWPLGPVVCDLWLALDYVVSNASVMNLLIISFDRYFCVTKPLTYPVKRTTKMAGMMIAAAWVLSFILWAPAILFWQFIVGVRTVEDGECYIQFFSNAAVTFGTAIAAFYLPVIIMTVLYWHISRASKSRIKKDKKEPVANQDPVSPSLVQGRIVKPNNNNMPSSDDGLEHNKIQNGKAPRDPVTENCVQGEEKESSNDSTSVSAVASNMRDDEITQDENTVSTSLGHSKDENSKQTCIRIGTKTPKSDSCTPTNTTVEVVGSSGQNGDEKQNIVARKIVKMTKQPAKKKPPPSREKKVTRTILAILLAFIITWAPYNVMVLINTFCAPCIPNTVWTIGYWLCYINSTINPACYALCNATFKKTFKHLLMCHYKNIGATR
Method: B-1.2. Determination of Positive Cooperativity (α Factor)
In contrast to the EC50 determination of the test substances (see B-1.1), however, this is not done using one acetylcholine concentration; instead, every concentration of the test substance is combined with an acetylcholine 8-point dose-response curve. […] The shift in the acetylcholine dose-response curve in the presence of increasing concentrations of the test substance is analysed and quantified by means of GraphPad PRISM (Allosteric EC50 shift). […] Positive cooperativity is the hallmark of a positive allosteric modulator. […] The greater the magnitude of the α value, the greater the extent of cooperativity between orthosteric and allosteric.

human M2 receptor [2] = molecular target: T1, human M2 receptor; details: for Efficiency: boosting of the acetylcholine effect at EC20 acetylcholine concentration
[3] = shift of acetylcholine dose-response curve (Allosteric EC50 shift)
[4] = Receptor activity EC50, allosteric potency at EC20 acetylcholine, M2-GIRK1/4 reporter cells, in some cases mean of two or more determinations
[5] = read-out: Efficiency, boosting of the acetylcholine effect at EC20 acetylcholine concentration, M2-GIRK1/4 reporter cells
[6] = shift in the acetylcholine dose-response curve (Allosteric EC50 shift, GraphPad PRISM)
[7] = Receptor activity EC50, M2-GIRK1/4 activation test, acetylcholine at EC20, allosteric potency, in some cases mean values from two or more determinations

Row | Compound | Cooperativity (alpha factor) (human M2 receptor [1]; [6]) | EC50 (human M2 receptor [2]; [7]) [nM] | also measured
1 | CC[C@H](NC(=O)c1cn(-c2c(F)cc(F)cc2Cl)c2nc(N3C[C@@H](O)CC3=O)ccc2c1=O)C(F)(F)F (single isomer, unassigned) [Example 399] | – | – | Cooperativity (alpha factor) (human M2 receptor [1]; [3]): 11; EC50 (human M2 receptor [2]; [4]): 40 nM; Emax (human M2 receptor [2]; [5]): 96.5%
2 | CC12CCC(NC(=O)c3cn(-c4ccc(F)cc4F)c4nc(NCC(F)(F)F)ccc4c3=O)(CC1)CC2 [Example 98, 1-(2,4-Difluorophenyl)-N-(4-methylbicyclo[2.2.2]oct-1-yl)-4-oxo-7-[(2,2,2-trifluoroethyl)amino]-1,4-dihydro-1,8-naphthyridine-3-carboxamide] | 14 | 61 | –
3 | CCC(NC(=O)c1cn(-c2ccc(F)cc2F)c2nc(N3C[C@@H](O)CC3=O)ccc2c1=O)C(F)(F)F (stereo partly drawn) [Example 176] | 28 | 95 | Emax (human M2 receptor [2]; read-out: Efficiency): 94.1%
4 | O=C(NC12CC3CC(CC(C3)C1)C2)c1cn(-c2ccc(F)cc2F)c2nc(N3CCCC[C@H]3CO)ccc2c1=O [Example 15, 1-(2,4-Difluorophenyl)-7-[(2S)-2-(hydroxymethyl)piperidin-1-yl]-4-oxo-N-(tricyclo[3.3.1.1^3,7]dec-1-yl)-1,4-dihydro-1,8-naphthyridine-3-carboxamide] | 8 | 85 | –
5 | CC[C@@H](NC(=O)c1cn(-c2c(F)cccc2F)c2nc(N3CC4CC4(O)C3)ccc2c1=O)C(F)(F)F (single isomer, unassigned) [Example 305] | 23 | 12 | –
6 | CC(C)(CC(F)(F)F)NC(=O)c1cn(-c2c(F)cc(F)cc2F)c2nc(N3CC(O)C4(CC4)C3)ccc2c1=O (racemic) [Example 571, 7-[7-Hydroxy-5-azaspiro[2.4]hept-5-yl]-4-oxo-N-(4,4,4-trifluoro-2-methylbutan-2-yl)-1-(2,4,6-trifluorophenyl)-1,4-dihydro-1,8-naphthyridine-3-carboxamide] | – | – | Cooperativity (alpha factor) (human M2 receptor [1]; [3]): 33; Efficiency (human M2 receptor [2]; M2-GIRK1/4 reporter cells): 94.0%
7 | CC[C@@H](NC(=O)c1cn(-c2ccc(F)cc2F)c2nc(N3CC(C)NC3=O)ccc2c1=O)C(F)(F)F (single isomer, unassigned) [Example 432] | – | – | Cooperativity (alpha factor) (human M2 receptor [1]; [3]): 26; EC50 (human M2 receptor [2]; [4]): 40 nM; Emax (human M2 receptor [2]; [5]): 94%
8 | CC1(C)CN(c2ccc3c(=O)c(C(=O)N[C@@H](C4CC4)C(F)(F)F)cn(-c4c(F)cc(F)cc4F)c3n2)C(=O)N1 [Example 451, N-[(1 S)-1-Cyclopropyl-2,2,2-trifluoroethyl]-7-(4,4-dimethyl-2-oxoimidazolidin-1-yl)-4-oxo-1-(2,4,6-trifluorophenyl)-1,4-dihydro-1,8-naphthyridine-3-carboxamide] | – | – | Cooperativity (alpha factor) (human M2 receptor [1]; [3]): 21; EC50 (human M2 receptor [2]; [4]): 8 nM; Emax (human M2 receptor [2]; [5]): 91%
9 | O=C(NC(C1CCC1)C(F)(F)F)c1cn(-c2c(F)cc(F)cc2F)c2nc(N3C[C@@H](O)CC3=O)ccc2c1=O (single isomer, unassigned) [Example 507] | – | – | Cooperativity (alpha factor) (human M2 receptor [1]; [3]): 37; EC50 (human M2 receptor [2]; [4]): 6 nM; Efficiency (human M2 receptor [2]; M2-GIRK1/4 reporter cells): 98.0%
10 | O=C(NC(c1c(F)cccc1F)C(F)(F)F)c1cn(-c2ccc(F)cc2F)c2nc(N3C[C@@H](O)CC3=O)ccc2c1=O (single isomer, unassigned) [Example 245] | 42 | 112 | –
11 | CC[C@@H](NC(=O)c1cn(-c2ccc(F)cc2F)c2nc(NCCF)ccc2c1=O)C(F)(F)F [Example 27, 1-(2,4-Difluorophenyl)-7-[(2-fluoroethyl)amino]-4-oxo-N-[(2R)-1,1,1-trifluorobutan-2-yl]-1,4-dihydro-1,8-naphthyridine-3-carboxamide] | 20 | 89 | –
12 | CCC(NC(=O)c1cn(-c2ccc(F)cc2F)c2nc(NCCF)ccc2c1=O)C(F)(F)F (racemic) [Example 85, rac-1-(2,4-Difluorophenyl)-7-[(2-fluoroethyl)amino]-4-oxo-N-[1,1,1-trifluorobutan-2-yl]-1,4-dihydro-1,8-naphthyridine-3-carboxamide] | 26 | 118 | –
13 | CN(C)c1ccc2c(=O)c(C(=O)NC(c3c(Cl)cccc3Cl)C(F)(F)F)cn(-c3ccc(F)cc3F)c2n1 (racemic) [Example 56, rac-N-[1-(2,6-Dichlorophenyl)-2,2,2-trifluoroethyl]-1-(2,4-difluorophenyl)-7-(dimethylamino)-4-oxo-1,4-dihydro-1,8-naphthyridine-3-carboxamide] | 15 | 56 | –

The next lines start with results.

Row | Cooperativity (alpha factor) (human M2 receptor [1]; [6]) | EC50 (human M2 receptor [2]; [7]) [nM] | Compound | also measured
14 | 34 | 48 | CC[C@H](NC(=O)c1cn(-c2c(F)cc(F)cc2F)c2nc(N3CCN/C3=N\C(=O)OC)ccc2c1=O)C(F)(F)F [Example 377, Methyl {1-[5-oxo-6-{[(2S)-1,1,1-trifluorobutan-2-yl]carbamoyl}-8-(2,4,6-trifluorophenyl)-5,8-dihydro-1,8-naphthyridin-2-yl]imidazolidin-2-ylidene}carbamate] | –
15 | 13 | 75 | CC[C@@H](NC(=O)c1cn(-c2ccc(F)cc2F)c2nc(N3CC(O)C3)ccc2c1=O)C(F)(F)F [Example 261, 1-(2,4-Difluorophenyl)-7-(3-hydroxyazetidin-1-yl)-4-oxo-N-[(2R)-1,1,1-trifluorobutan-2-yl]-1,4-dihydro-1,8-naphthyridine-3-carboxamide] | –
16 | 30 | 39 | CCC(NC(=O)c1cn(-c2ccc(F)cc2F)c2nc(N3CC[C@H](F)C3)ccc2c1=O)C(F)(F)F (stereo partly drawn) [Example 71, 1-(2,4-Difluorophenyl)-7-[(3S)-3-fluoropyrrolidin-1-yl]-4-oxo-N-[1,1,1-trifluorobutan-2-yl]-1,4-dihydro-1,8-naphthyridine-3-carboxamide] | –
17 | 20 | 25 | C[C@H](NC(=O)c1cn(-c2c(F)cccc2F)c2nc(N3CC4CC4(O)C3)ccc2c1=O)C(F)(F)F (mixture of isomers) [Example 311, 1-(2,6-Difluorophenyl)-7-[1-hydroxy-3-azabicyclo[3.1.0]hex-3-yl]-4-oxo-N-[(2S)-1,1,1-trifluoropropan-2-yl]-1,4-dihydro-1,8-naphthyridine-3-carboxamide] | –
18 | 10 | 120 | CC[C@@H](NC(=O)c1cn(-c2ccc(F)cc2F)c2nc(N3CCC(C)(OC)C3=O)ccc2c1=O)C(F)(F)F (mixture of isomers) [Example 197, 1-(2,4-Difluorophenyl)-7-[3-methoxy-3-methyl-2-oxopyrrolidin-1-yl]-4-oxo-N-[(2R)-1,1,1-trifluorobutan-2-yl]-1,4-dihydro-1,8-naphthyridine-3-carboxamide] | –
19 | 29 | 116 | CC[C@H](NC(=O)c1cn(-c2ccc(F)cc2F)c2nc(N3CCC(O)C3)ccc2c1=O)C(F)(F)F (single isomer, unassigned) [Example 220] | –
20 | 21 | 31 | COC(=O)N1CCN(c2ccc3c(=O)c(C(=O)Nc4c(Cl)cccc4Cl)cn(-c4ccc(F)cc4F)c3n2)CC1 [Example 164, Methyl 4-{6-[(2,6-dichlorophenyl)carbamoyl]-8-(2,4-difluorophenyl)-5-oxo-5,8-dihydro-1,8-naphthyridin-2-yl}piperazine-1-carboxylate] | –
21 | 31 | 24 | O=C(NC12CC(C1)C2)c1cn(-c2c(F)cc(F)cc2F)c2nc(N3C[C@@H](O)CC3=O)ccc2c1=O [Example 358, N-(Bicyclo[1.1.1]pent-1-yl)-7-[(4S)-4-hydroxy-2-oxopyrrolidin-1-yl]-4-oxo-1-(2,4,6-trifluorophenyl)-1,4-dihydro-1,8-naphthyridine-3-carboxamide] | –
22 | 14 | 107 | O=C(NC(c1ccccc1Cl)C(F)(F)F)c1cn(-c2ccc(F)cc2F)c2nc(N3CCCC(O)C3=O)ccc2c1=O (racemic) [Example 206, rac-N-[(1R)-(2-Chlorophenyl)-2,2,2-trifluoroethyl]-1-(2,4-difluorophenyl)-7-[3-hydroxy-2-oxopiperidin-1-yl]-4-oxo-1,4-dihydro-1,8-naphthyridine-3-carboxamide] | –
23 | 71 | 21 | O=C(NC(C1CC1)C(F)(F)F)c1cn(-c2c(F)cccc2F)c2nc(N3C[C@@H](O)CC3=O)ccc2c1=O (mixture of isomers) [Example 295, N-[1-Cyclopropyl-2,2,2-trifluoroethyl]-1-(2,6-difluorophenyl)-7-[(4S)-4-hydroxy-2-oxopyrrolidin-1-yl]-4-oxo-1,4-dihydro-1,8-naphthyridine-3-carboxamide] | –
